In ChEMBL document CHEMBL4507280 (2021):

Columns and labels:
[1] = molecular target: Serine/threonine-protein kinase D1 (Homo sapiens) (UniProt Q15139); details: Compound concentration 1000.0 nM
[2] = molecular target: Ephrin type-B receptor 1 (Homo sapiens) (UniProt P54762); details: Compound concentration 1000.0 nM
[3] = molecular target: Glycogen synthase kinase-3 alpha (Homo sapiens) (UniProt P49840); details: Compound concentration 1000.0 nM
[4] = molecular target: Dual specificity testis-specific protein kinase 1 (Homo sapiens) (UniProt Q15569); details: Compound concentration 1000.0 nM
[5] = molecular target: Mitogen-activated protein kinase kinase kinase 9 (Homo sapiens) (UniProt P80192); details: Compound concentration 1000.0 nM
[6] = molecular target: Mu-type opioid receptor (Homo sapiens) (UniProt P35372); details: Compound concentration 10.0 uM
[7] = molecular target: Serine/threonine-protein kinase NLK (Homo sapiens) (UniProt Q9UBE8); details: Compound concentration 1000.0 nM
[8] = molecular target: Macrophage-stimulating protein receptor (Homo sapiens) (UniProt Q04912); details: Compound concentration 1000.0 nM
[9] = molecular target: Calcium/calmodulin-dependent protein kinase type 1 (Homo sapiens) (UniProt Q14012); details: Compound concentration 1000.0 nM
[10] = molecular target: cGMP-dependent protein kinase 2 (Homo sapiens) (UniProt Q13237); details: Compound concentration 1000.0 nM
[11] = molecular target: Sodium-dependent serotonin transporter (Homo sapiens) (UniProt P31645); details: Compound concentration 10.0 uM
[12] = system: Receptor-type tyrosine-protein kinase FLT3 (Homo sapiens), P36888 [UNDEFINED MUTATION]; details: Compound concentration 1000.0 nM
[13] = molecular target: Serine/threonine-protein kinase VRK2 (Homo sapiens) (UniProt Q86Y07); details: Compound concentration 1000.0 nM
[14] = molecular target: Ribosomal protein S6 kinase alpha-1 (Homo sapiens) (UniProt Q15418); details: Compound concentration 1000.0 nM
[15] = molecular target: Serine/threonine-protein kinase B-raf (Homo sapiens) (UniProt P15056); details: Compound concentration 1000.0 nM
[16] = molecular target: TGF-beta receptor type-1 (Homo sapiens) (UniProt P36897); details: Compound concentration 1000.0 nM
[17] = molecular target: 5'-AMP-activated protein kinase catalytic subunit alpha-1 (Homo sapiens) (UniProt Q13131); details: Compound concentration 1000.0 nM
[18] = molecular target: 5-hydroxytryptamine receptor 2B (Homo sapiens) (UniProt P41595); details: Compound concentration 10.0 uM
[19] = system: Mast/stem cell growth factor receptor Kit (Homo sapiens), P10721 [V559D,T670I]; details: Compound concentration 1000.0 nM
[20] = molecular target: BMP-2-inducible protein kinase (Homo sapiens) (UniProt Q9NSY1); details: Compound concentration 1000.0 nM
[21] = molecular target: Dual specificity protein kinase CLK4 (Homo sapiens) (UniProt Q9HAZ1); details: Compound concentration 1000.0 nM
[22] = molecular target: Cyclin-dependent kinase 4 (Homo sapiens) (UniProt P11802); details: Compound concentration 1000.0 nM
[23] = molecular target: MAP kinase-interacting serine/threonine-protein kinase 2 (Homo sapiens) (UniProt Q9HBH9); details: Compound concentration 1000.0 nM
[24] = molecular target: Serine/threonine-protein kinase SBK1 (Homo sapiens) (UniProt Q52WX2); details: Compound concentration 1000.0 nM
[25] = molecular target: Focal adhesion kinase 1 (Homo sapiens) (UniProt Q05397); details: Compound concentration 1000.0 nM
[26] = molecular target: Proto-oncogene tyrosine-protein kinase Src (Homo sapiens) (UniProt P12931); details: Compound concentration 1000.0 nM
[27] = system: Mast/stem cell growth factor receptor Kit (Homo sapiens), P10721 [V559D]; details: Compound concentration 1000.0 nM
[28] = molecular target: Casein kinase I isoform gamma-3 (Homo sapiens) (UniProt Q9Y6M4); details: Compound concentration 1000.0 nM
[29] = molecular target: Serine/threonine-protein kinase LATS2 (Homo sapiens) (UniProt Q9NRM7); details: Compound concentration 1000.0 nM
[30] = molecular target: Ephrin type-A receptor 6 (Homo sapiens) (UniProt Q9UF33); details: Compound concentration 1000.0 nM
[31] = molecular target: Wee1-like protein kinase 2 (Homo sapiens) (UniProt P0C1S8); details: Compound concentration 1000.0 nM
[32] = molecular target: Phosphatidylinositol 3-kinase catalytic subunit type 3 (Homo sapiens) (UniProt Q8NEB9); details: Compound concentration 1000.0 nM
[33] = molecular target: Vascular endothelial growth factor receptor 1 (Homo sapiens) (UniProt P17948); details: Compound concentration 1000.0 nM
[34] = molecular target: Cyclin-dependent kinase 5 (Homo sapiens) (UniProt Q00535); details: Compound concentration 1000.0 nM
[35] = molecular target: Serine/threonine-protein kinase D3 (Homo sapiens) (UniProt O94806); details: Compound concentration 1000.0 nM
[36] = molecular target: Cyclin-dependent kinase 3 (Homo sapiens) (UniProt Q00526); details: Compound concentration 1000.0 nM
[37] = molecular target: Rhodopsin kinase GRK7 (Homo sapiens) (UniProt Q8WTQ7); details: Compound concentration 1000.0 nM
[38] = molecular target: Mitogen-activated protein kinase 12 (Homo sapiens) (UniProt P53778); details: Compound concentration 1000.0 nM
[39] = molecular target: Serine/threonine-protein kinase PLK2 (Homo sapiens) (UniProt Q9NYY3); details: Compound concentration 1000.0 nM
[40] = molecular target: Mitogen-activated protein kinase 10 (Homo sapiens) (UniProt P53779); details: Compound concentration 1000.0 nM
[41] = molecular target: Serine/threonine-protein kinase PAK 5 (Homo sapiens) (UniProt Q9P286); details: Compound concentration 1000.0 nM
[42] = system: Receptor-type tyrosine-protein kinase FLT3 (Homo sapiens), P36888 [D835Y]; details: Compound concentration 1000.0 nM
[43] = molecular target: Serine/threonine-protein kinase ULK3 (Homo sapiens) (UniProt Q6PHR2); details: Compound concentration 1000.0 nM
[44] = molecular target: 5-hydroxytryptamine receptor 5A (Homo sapiens) (UniProt P47898); details: Compound concentration 10.0 uM
[45] = molecular target: Dual specificity protein kinase CLK1 (Homo sapiens) (UniProt P49759); details: Compound concentration 1000.0 nM

Sequence of Cyclin-dependent kinase 4 (Homo sapiens) (P11802 whole entry): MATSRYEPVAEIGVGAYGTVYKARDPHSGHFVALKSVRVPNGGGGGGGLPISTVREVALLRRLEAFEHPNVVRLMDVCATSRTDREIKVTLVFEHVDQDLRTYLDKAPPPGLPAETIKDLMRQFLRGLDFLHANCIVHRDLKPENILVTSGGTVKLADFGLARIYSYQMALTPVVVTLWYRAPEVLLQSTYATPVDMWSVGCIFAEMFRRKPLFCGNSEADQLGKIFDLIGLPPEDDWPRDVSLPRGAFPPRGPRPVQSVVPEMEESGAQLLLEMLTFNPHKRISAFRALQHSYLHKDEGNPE
Sequence of cGMP-dependent protein kinase 2 (Homo sapiens) (Q13237 whole entry): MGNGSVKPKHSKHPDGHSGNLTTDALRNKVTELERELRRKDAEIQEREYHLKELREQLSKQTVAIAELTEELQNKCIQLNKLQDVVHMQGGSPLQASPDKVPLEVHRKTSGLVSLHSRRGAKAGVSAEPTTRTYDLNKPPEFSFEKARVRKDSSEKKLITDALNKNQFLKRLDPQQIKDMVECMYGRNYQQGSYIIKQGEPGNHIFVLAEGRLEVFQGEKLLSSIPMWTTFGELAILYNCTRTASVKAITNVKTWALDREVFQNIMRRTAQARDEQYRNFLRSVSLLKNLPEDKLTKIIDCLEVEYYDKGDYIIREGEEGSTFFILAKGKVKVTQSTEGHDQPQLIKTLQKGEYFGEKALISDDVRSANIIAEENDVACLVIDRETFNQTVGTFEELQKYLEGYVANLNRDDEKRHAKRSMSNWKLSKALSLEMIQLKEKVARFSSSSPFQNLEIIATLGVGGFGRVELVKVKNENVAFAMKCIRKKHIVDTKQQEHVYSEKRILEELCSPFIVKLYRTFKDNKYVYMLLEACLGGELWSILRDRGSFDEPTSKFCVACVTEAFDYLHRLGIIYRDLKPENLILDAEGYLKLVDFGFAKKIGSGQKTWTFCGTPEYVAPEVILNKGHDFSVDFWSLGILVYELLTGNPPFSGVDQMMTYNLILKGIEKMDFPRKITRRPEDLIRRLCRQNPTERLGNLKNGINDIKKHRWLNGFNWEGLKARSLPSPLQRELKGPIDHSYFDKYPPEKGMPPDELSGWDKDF
Sequence of Wee1-like protein kinase 2 (Homo sapiens) (P0C1S8 whole entry, looked up): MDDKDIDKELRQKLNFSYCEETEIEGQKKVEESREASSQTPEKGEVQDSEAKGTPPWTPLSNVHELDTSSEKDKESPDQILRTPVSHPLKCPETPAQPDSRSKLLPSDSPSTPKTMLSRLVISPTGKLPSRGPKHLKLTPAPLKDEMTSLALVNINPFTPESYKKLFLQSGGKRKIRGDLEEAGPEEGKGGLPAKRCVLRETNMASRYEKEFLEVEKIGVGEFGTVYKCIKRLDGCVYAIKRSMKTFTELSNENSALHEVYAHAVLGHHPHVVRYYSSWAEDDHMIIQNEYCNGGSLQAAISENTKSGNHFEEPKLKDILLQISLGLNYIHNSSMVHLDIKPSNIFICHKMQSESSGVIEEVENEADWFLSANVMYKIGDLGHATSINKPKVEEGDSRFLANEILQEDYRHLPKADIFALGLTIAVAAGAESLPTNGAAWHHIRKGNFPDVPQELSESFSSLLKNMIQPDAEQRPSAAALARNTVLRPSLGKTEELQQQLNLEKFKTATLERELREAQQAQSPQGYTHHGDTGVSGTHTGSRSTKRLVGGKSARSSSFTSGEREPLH
Sequence of MAP kinase-interacting serine/threonine-protein kinase 2 (Homo sapiens) (Q9HBH9 whole entry, looked up): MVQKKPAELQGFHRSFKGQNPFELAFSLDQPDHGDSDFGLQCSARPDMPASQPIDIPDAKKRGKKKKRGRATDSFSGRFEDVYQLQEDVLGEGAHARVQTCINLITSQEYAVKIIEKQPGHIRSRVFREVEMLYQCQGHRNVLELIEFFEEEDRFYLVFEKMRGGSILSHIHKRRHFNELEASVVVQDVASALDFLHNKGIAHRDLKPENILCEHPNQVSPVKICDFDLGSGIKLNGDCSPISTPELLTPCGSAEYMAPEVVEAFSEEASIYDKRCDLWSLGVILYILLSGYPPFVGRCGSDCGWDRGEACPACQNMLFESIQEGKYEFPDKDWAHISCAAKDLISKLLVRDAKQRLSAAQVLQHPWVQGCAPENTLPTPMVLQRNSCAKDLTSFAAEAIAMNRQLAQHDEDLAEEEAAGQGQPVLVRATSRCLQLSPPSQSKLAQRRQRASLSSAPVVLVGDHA
Sequence of Ephrin type-A receptor 6 (Homo sapiens) (Q9UF33 whole entry): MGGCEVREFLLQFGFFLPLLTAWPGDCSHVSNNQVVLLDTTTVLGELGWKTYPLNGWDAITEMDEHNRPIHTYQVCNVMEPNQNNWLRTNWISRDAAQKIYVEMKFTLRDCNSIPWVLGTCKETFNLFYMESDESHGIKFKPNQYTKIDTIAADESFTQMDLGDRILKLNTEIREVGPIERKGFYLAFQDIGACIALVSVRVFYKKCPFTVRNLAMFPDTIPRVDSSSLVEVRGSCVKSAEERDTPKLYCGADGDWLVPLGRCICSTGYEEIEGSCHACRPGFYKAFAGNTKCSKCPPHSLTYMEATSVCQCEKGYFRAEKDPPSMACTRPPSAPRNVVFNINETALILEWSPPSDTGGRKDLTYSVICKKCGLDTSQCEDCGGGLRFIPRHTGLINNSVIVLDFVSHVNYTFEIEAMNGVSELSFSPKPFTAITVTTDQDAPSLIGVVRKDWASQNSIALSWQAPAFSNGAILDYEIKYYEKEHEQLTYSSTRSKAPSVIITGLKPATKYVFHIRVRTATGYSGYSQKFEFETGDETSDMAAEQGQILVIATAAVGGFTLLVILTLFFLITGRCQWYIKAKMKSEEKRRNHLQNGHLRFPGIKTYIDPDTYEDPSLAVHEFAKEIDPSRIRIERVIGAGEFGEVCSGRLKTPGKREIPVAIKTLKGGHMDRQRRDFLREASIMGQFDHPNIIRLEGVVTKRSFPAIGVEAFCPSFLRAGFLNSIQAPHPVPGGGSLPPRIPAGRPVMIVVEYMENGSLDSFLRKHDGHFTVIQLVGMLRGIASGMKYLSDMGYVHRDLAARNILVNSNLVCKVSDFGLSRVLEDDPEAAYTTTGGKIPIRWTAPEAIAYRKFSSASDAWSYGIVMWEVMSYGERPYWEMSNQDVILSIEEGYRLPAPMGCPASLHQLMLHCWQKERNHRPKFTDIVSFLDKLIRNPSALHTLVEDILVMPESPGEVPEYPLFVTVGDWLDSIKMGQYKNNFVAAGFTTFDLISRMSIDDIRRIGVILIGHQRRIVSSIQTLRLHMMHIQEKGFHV
Sequence of Dual specificity testis-specific protein kinase 1 (Homo sapiens) (Q15569 whole entry, looked up): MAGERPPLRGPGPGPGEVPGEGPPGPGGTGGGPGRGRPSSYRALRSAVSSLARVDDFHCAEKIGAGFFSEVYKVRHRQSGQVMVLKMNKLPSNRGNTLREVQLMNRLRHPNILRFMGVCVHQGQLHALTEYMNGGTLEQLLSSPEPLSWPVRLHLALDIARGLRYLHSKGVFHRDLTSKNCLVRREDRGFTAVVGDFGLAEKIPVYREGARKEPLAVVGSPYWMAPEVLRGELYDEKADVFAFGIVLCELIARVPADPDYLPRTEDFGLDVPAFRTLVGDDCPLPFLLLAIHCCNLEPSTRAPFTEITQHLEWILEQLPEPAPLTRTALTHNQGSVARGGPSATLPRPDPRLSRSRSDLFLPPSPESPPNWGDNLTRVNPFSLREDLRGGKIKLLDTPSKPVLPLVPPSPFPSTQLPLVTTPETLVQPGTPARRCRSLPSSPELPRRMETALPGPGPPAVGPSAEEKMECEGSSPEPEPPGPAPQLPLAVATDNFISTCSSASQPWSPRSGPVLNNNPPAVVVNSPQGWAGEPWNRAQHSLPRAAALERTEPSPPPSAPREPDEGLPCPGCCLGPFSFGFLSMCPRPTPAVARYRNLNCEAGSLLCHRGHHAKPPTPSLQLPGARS
Sequence of Serine/threonine-protein kinase D3 (Homo sapiens) (O94806 whole entry): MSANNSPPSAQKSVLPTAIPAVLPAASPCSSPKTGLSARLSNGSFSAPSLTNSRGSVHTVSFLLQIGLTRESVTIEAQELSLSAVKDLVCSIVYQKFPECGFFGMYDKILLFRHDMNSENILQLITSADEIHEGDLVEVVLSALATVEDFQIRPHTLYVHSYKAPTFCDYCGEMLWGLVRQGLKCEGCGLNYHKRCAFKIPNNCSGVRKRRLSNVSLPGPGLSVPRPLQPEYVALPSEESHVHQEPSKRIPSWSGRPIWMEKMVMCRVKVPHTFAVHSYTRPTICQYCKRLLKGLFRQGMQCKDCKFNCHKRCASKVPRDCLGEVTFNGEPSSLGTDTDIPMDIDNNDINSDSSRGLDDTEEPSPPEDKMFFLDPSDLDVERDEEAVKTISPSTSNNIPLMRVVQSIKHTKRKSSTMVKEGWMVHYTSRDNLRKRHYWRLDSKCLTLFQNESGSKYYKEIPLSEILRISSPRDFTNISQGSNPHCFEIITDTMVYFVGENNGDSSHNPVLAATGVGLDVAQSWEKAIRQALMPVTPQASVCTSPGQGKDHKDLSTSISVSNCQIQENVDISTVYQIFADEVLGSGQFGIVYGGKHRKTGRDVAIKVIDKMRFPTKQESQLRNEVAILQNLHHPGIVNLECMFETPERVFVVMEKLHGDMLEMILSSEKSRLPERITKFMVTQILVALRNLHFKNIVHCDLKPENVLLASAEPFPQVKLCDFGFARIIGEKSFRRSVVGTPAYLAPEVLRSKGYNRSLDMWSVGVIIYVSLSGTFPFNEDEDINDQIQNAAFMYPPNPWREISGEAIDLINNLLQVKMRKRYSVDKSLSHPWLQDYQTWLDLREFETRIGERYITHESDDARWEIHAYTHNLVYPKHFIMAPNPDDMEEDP
Sequence of 5-hydroxytryptamine receptor 5A (Homo sapiens) (P47898 whole entry): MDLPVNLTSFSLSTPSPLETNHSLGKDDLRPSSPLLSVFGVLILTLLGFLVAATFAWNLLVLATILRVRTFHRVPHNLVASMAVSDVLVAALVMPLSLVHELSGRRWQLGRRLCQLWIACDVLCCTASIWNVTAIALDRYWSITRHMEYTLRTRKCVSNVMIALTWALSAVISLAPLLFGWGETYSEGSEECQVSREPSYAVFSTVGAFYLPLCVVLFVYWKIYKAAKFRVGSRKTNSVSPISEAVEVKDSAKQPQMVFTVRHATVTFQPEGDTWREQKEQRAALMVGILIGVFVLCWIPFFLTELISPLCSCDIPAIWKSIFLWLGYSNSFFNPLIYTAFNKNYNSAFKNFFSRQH

CCC(=O)N[C@H]1CC[C@@H](C(=O)N(C)c2ccc(-c3nc4ccccc4o3)cc2)C1 [BI 99179]
inactive: residual activity [1] 100% | residual activity [2] 100% | residual activity [3] 100% | residual activity [4] 100% | residual activity [5] 100% | inhibition [6] 10.3% | residual activity [7] 87% | residual activity [8] 87% | residual activity [9] 95% | residual activity [10] 100% | inhibition [11] 32.8% | residual activity [12] 100% | residual activity [13] 90% | residual activity [14] 99% | residual activity [15] 100% | residual activity [16] 100% | residual activity [17] 99% | inhibition [18] 4.55% | residual activity [19] 100% | residual activity [20] 91% | residual activity [21] 94% | residual activity [22] 88% | residual activity [23] 100% | residual activity [24] 94% | residual activity [25] 100% | residual activity [26] 93% | residual activity [27] 94% | residual activity [28] 99% | residual activity [29] 67% | residual activity [30] 76% | residual activity [31] 96% | residual activity [32] 89% | residual activity [33] 98% | residual activity [34] 87% | residual activity [35] 100% | residual activity [36] 98% | residual activity [37] 82% | residual activity [38] 67% | residual activity [39] 96% | residual activity [40] 85% | residual activity [41] 100% | residual activity [42] 100% | residual activity [43] 67% | inhibition [44] -1.85% | residual activity [45] 93%

CCC(=O)N[C@@H]1CC[C@H](C(=O)N(C)c2ccc(-c3nc4ccccc4o3)cc2)C1 [BI 99990]
inactive: residual activity [1] 98% | residual activity [2] 100% | residual activity [3] 84% | residual activity [4] 75% | residual activity [5] 100% | inhibition [6] 14.1% | residual activity [7] 100% | residual activity [8] 100% | residual activity [9] 100% | residual activity [10] 92% | inhibition [11] 20.2% | residual activity [12] 94% | residual activity [13] 100% | residual activity [14] 100% | residual activity [15] 96% | residual activity [16] 95% | residual activity [17] 91% | inhibition [18] 19.1% | residual activity [19] 93% | residual activity [20] 100% | residual activity [21] 88% | residual activity [22] 100% | residual activity [23] 100% | residual activity [24] 100% | residual activity [25] 100% | residual activity [26] 100% | residual activity [27] 100% | residual activity [28] 100% | residual activity [29] 69% | residual activity [30] 100% | residual activity [31] 100% | residual activity [32] 100% | residual activity [33] 100% | residual activity [34] 100% | residual activity [35] 100% | residual activity [36] 100% | residual activity [37] 93% | residual activity [38] 73% | residual activity [39] 100% | residual activity [40] 100% | residual activity [41] 100% | residual activity [42] 100% | residual activity [43] 66% | inhibition [44] -3.5% | residual activity [45] 100%
